“Also recorded” adds a separate entry of the source. Like-named read-outs stand apart in the source and are kept apart here.
Experiments:
[1] = system: APAP-exposed hepatocytes; experiment: Hepatocyte rescue: protectant added 2 hrs after APAP; type: cell-based, mouse
[2] = pKa and % anion at physiological pH; conditions: for % in the carbanion / ionized nucleophilic state: physiological / cellular pH
[3] = system: APAP-exposed isolated mouse liver cells (hepatocytes); experiment: Viability of APAP-exposed isolated mouse hepatocytes, graded protectant concentrations; type: cell-based; conditions: read-out: EC50 (cytoprotection)
[4] = In chemico prevention of thiol (GSH) depletion by acrolein; type: biochemical; conditions: FIG. 2B
[5] = system: raloxifene-exposed hepatocytes; experiment: Raloxifene-induced hepatocyte toxicity; conditions: for protection against raloxifene: at 150 μM
[6] = system: isolated hepatocytes exposed to graded APAP; experiment: Isolated hepatocytes, fixed protectant and graded APAP concentrations; type: cell-based, mouse
Excerpt: FIG. 8A-8B. […] Data are expressed as mean percent of control±SEM and *indicates p<0.05.

[7] = system: raloxifene-exposed hepatocytes
[8] = system: mice
[9] = system: APAP-intoxicated mice; conditions: for hepatoprotection in APAP-intoxicated mice, i. p. administration: i. p. 20 mins prior to APAP, THA 0.20-0.80, PG 0.40-2.40, 4-NAHA 0.04-0.08 mmol/kg; for hepatoprotection in APAP-intoxicated mice, oral administration: THA and PG 0.80-2.40, 4-NAHA 0.04-0.12, NAC 1.60-2.40 mmol/kg
Excerpt: Survival curves, THA and PG i. p. administration.
Survival curves, THA and PG oral administration.
Survival curves, 4-NAHA i. p. and oral administration.

[10] = physchem
[11] = system: cell culture models of oxidative stress and electrophile (acrolein) toxicity; conditions: cited from earlier work
[12] = system: mice; conditions: cited from earlier work
[13] = In chemico prevention of thiol (GSH) depletion by NAPQI; type: biochemical; conditions: FIG. 2A
[14] = system: carbon tetrachloride-induced hepatotoxicity in mice; conditions: 0.032 mmol/kg p. o.; carbon tetrachloride 0.5 ml/kg i. p.; cited from earlier work
[15] = Computational data on THA analogues: pKa and % anion; type: physicochemical
Excerpt: Computational Data on THA Analogues:

[16] = 0.25 mM protectant, APAP 1.0 mM
[17] = 0.25 mM protectant, APAP 0.25-5.0 mM×4 hrs
[18] = 1.0 mM protectant, APAP 0.25-5.0 mM×4 hrs
[19] = 0.25 mM protectant, highest APAP concentration 5.0 mM

SMILES | effect on viability, protectant added 2 hrs post-APAP [1, 16] | effect on viability, protectant added 2 hrs post-APAP ([1]; 1.0 mM protectant) | % Anion (pH 7.4) [2] [%] | EC50 ([3]; Mus musculus, Hepatocyte, 4 h) [µM] | protection against raloxifene [5] | cytoprotection (viability) [6, 17] | toxicity measures (ALT appearance, mitochondrial membrane potential) ([6]; 1.0 mM protectant) | cytoprotection (viability) [6, 18] | hepatoprotection in APAP-intoxicated mice, oral administration [9] | other results
CC(=O)C1CCCC1=O (stereo not drawn) [2-ACP, 2-acetylcyclopentanone] | ineffective | truncated the rapid decline in viability | 28.0 | ~1000 | partial protection | neither 2-ACP nor NAC provided cytoprotection beyond the lowest APAP concentration | return toward normalization of the toxicity indices | partial cytoprotection | – | effect on viability, protectant added 2 hrs post-APAP ([1]; 5 mM protectant, APAP 1.0 mM): promoted recovery of APAP-exposed hepatocytes; prevention of acrolein-induced thiol (GSH) depletion [4]: better GSH protection from acrolein than THA or PG
CC(=O)c1cc(O)c(C(C)=O)c(O)c1 [4-NAHA, 4-acetyl-2,6-dihydroxy acetophenone] | – | – | – | – | fully protective | – | – | – | effective over a broader dose-range | relative ability to prevent raloxifene-induced hepatocyte toxicity [7]: superior protection; EC50 ([3]; APAP 1.0 mM, 4 hrs, protectant 0.010-5.0 mM): 6 µM; delayed toxicity ([8]; all doses tested, 7 days): did not cause delayed toxicity; acute toxicity ([8]; doses 0.04-0.12 mmol/kg): not acutely toxic; hepatoprotection ([9]; i. p. 0.04 mmol/kg): ineffective; hepatoprotection ([9]; i. p. 0.08 mmol/kg): significant hepatoprotection; hepatoprotection in APAP-intoxicated mice, i. p. administration [9]: dose-dependent protection; hepatoprotection ([9]; oral 0.04 mmol/kg): ineffective; hepatoprotection ([9]; oral 0.12 mmol/kg, lethality significantly delayed): partially protective
CC(=O)N[C@@H](CS)C(=O)O [NAC, N-acetyl cysteine] | ineffective | truncated the rapid decline in viability | 0.80 | ~1000 | partial protection | neither 2-ACP nor NAC provided cytoprotection beyond the lowest APAP concentration | return toward normalization of the toxicity indices | partial cytoprotection | effective APAP antidote only when administered orally | effect on viability, protectant added 2 hrs post-APAP ([1]; 5 mM protectant, APAP 1.0 mM): promoted recovery of APAP-exposed hepatocytes
Oc1cc(O)cc(O)c1 [PG, 1,3,5-trihydroxybenzene] | arrested the progression of APAP-induced toxicity | complete restoration of viability | 7.40 | ~90 | – | fully protective up to the 1.0 mM APAP concentration | – | full hepatocyte protection irrespective of APAP concentration | – | % in the carbanion / ionized nucleophilic state [2]: 7%; pKa [10]: 8.45; cytoprotection (viability) [6, 19]: only partial cytoprotection
O=C(CCc1ccc(O)cc1)c1c(O)cc(O)cc1O [Phloretin, phloretin] | – | – | 55.0 | – | – | – | – | – | – | lethality when administered alone ([8]; 0.40-2.40 mmol/kg, administered alone): associated with lethality; effect of higher concentrations ([11]; above the protective range): cytotoxic; concentrations giving significant cytoprotection ([11]; several cell culture models): 100 to 250 µM; hepatoprotection ([9]; i. p. 0.200 mmol/kg, APAP 500 mg/kg p. o.): marginal hepatoprotection
CC(=O)c1c(O)cc(O)cc1O [THA, 2′,4′,6′-trihydroxyacetophenone] | partial recovery of viability | complete restoration of viability | 33.0 | ~90 | fully protective | fully protective up to the 1.0 mM APAP concentration | normal | full hepatocyte protection irrespective of APAP concentration | dose-dependent hepatoprotection; also recorded: dose-dependent protection | pKa [2]: 7.7; % in the carbanion / ionized nucleophilic state [2]: approximately 33%; pKa [10]: 7.75; oral LD50 mice [12]: 3.20 gm/kg; lethality associated with the i. p. doses ([8]; i. p. doses of FIG. 3): No lethality; prevention of NAPQI-induced thiol (GSH) depletion [13]: better thiol protection than PG; also recorded: better protection against NAPQI-induced GSH loss; prevention of acrolein-induced thiol (GSH) depletion [4]: better thiol protection than PG; relative ability to prevent raloxifene-induced hepatocyte toxicity ([5]; FIG. 10 legend): superior protection; cytoprotection (viability) [6, 19]: preserved cell viability; hepatoprotection in APAP-intoxicated mice, i. p. administration [9]: dose-dependent (0.20-0.80 mmol/kg) hepatoprotection; prevention of carbon tetrachloride-induced hepatotoxicity [14]: completely prevent
O=C(CCc1ccc(O)cc1)c1c(O)cc(O)cc1O [drawing 21] | – | – | – | – | – | – | – | – | – | % Anion (pH = 7.4) [15]: 56%
Oc1cc(O)cc(O)c1 [drawing 24] | – | – | – | – | – | – | – | – | – | % Anion (pH = 7.4) [15]: 07%; pKa ([15]; values without * (not estimates)): 8.5
O=C(c1ccc(OCCN2CCCCC2)cc1)c1c(-c2ccc(O)cc2)sc2cc(O)ccc12 [raloxifene, reference compound] | – | – | – | – | – | – | – | – | – | concentration producing hepatocyte toxicity ([5]; raloxifene exposure): 75 µM
